Experimental findings from patent US10787452B2 (Vertex Pharmaceuticals Incorporated, priority 2012, dated 2020) are described below.

Structures are written as SMILES.

For this assay, the system named is HCT116 colorectal cancer cells. Nature of the assay: Cisplatin sensitization assay (96 h cell viability MTS).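 Also: compound concentration needed to lower the Cisplatin-alone IC50 by a set fold.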 The assay is classed as cell-based. As to conditions: 96 h MTS, compound plus Cisplatin. An outline of the steps: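 Simultaneous addition of compound and cisplatin (2-fold series, top 10 μM final, full matrix), followed by 96 h culture at 37° C/5% CO2 and a 1 h MTS viability read.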
`CO[C@H]1CCN(C(=O)C2CCN(c3ccncc3NC(=O)c3c(N)nn4cc(F)cnc34)CC2)C1` [I-G-94, (S)-2-amino-6-fluoro-N-(4-(4-(3-methoxypyrrolidine-1-carbonyl)piperidin-1-yl)pyridin-3-yl)pyrazolo[1,5-a]pyrimidine-3-carboxamide]: the “Cisplatin Sensitization Assay” value was “+++ (Compounds with a Cisplatin sensitization value of <0.02 μM are marked with “+++.”)”. Consider `C[N+]1([O-])CCN(C(=O)C2CCN(c3c(F)cncc3NC(=O)c3c(N)nn4cc(F)cnc34)CC2)CC1` [I-G-95, 4-(1-(3-(2-amino-6-fluoropyrazolo[1,5-a]pyrimidine-3-carboxamido)-5-fluoropyridin-4-yl)piperidine-4-carbonyl)-1-methylpiperazine 1-oxide], for which the “Cisplatin Sensitization Assay” value is on record as “+++ (Compounds with a Cisplatin sensitization value of <0.02 μM are marked with “+++.”)”. Take `CN1CC(N2CCN(C(=O)C3CCN(c4c(F)cncc4NC(=O)c4c(N)nn5cc(F)cnc45)CC3)CC2)C1` [I-G-96, 2-amino-6-fluoro-N-(5-fluoro-4-(4-(4-(1-methylazetidin-3-yl)piperazine-1-carbonyl)piperidin-1-yl)pyridin-3-yl)pyrazolo[1,5-a]pyrimidine-3-carboxamide]: the “Cisplatin Sensitization Assay” value is “+++ (Compounds with a Cisplatin sensitization value of <0.02 μM are marked with “+++.”)”. The value for `COCC1CN(C(=O)C2CCN(c3c(F)cncc3NC(=O)c3c(N)nn4cc(F)cnc34)CC2)C1` [I-G-98, 2-amino-6-fluoro-N-(5-fluoro-4-(4-(3-(methoxymethyl)azetidine-1-carbonyl)piperidin-1-yl)pyridin-3-yl)pyrazolo[1,5-a]pyrimidine-3-carboxamide] was “+++ (Compounds with a Cisplatin sensitization value of <0.02 μM are marked with “+++.”)”; that for `CO[C@H]1CCN(C(=O)C2CCN(c3c(F)cncc3NC(=O)c3c(N)nn4cc(F)cnc34)CC2)C1` [I-G-99, (S)-2-amino-6-fluoro-N-(5-fluoro-4-(4-(3-methoxypyrrolidine-1-carbonyl)piperidin-1-yl)pyridin-3-yl)pyrazolo[1,5-a]pyrimidine-3-carboxamide] was “+++ (Compounds with a Cisplatin sensitization value of <0.02 μM are marked with “+++.”)”; that for `Nc1nn2cc(F)cnc2c1C(=O)Nc1cnccc1N1CCN(C2COC2)CC1` [I-N-1, 2-amino-6-fluoro-N-(4-(4-(oxetan-3-yl)piperazin-1-yl)pyridin-3-yl)pyrazolo[1,5-a]pyrimidine-3-carboxamide] was “++ (Compounds with a Cisplatin sensitization value >0.02 μM but <0.2 μM are marked with “++.”)”.

In the case of `N#CCc1cnc2c(C(=O)Nc3cnccc3N3CCC(N)CC3)c(N)nn2c1` [I-N-2, 2-amino-N-(4-(4-aminopiperidin-1-yl)pyridin-3-yl)-6-(cyanomethyl)pyrazolo[1,5-a]pyrimidine-3-carboxamide], the “Cisplatin Sensitization Assay” value is on record as “+++ (Compounds with a Cisplatin sensitization value of <0.02 μM are marked with “+++.”)”. The value for `CN1CCN(c2ccncc2NC(=O)c2c(N)nn3cc(F)cnc23)CC1` [I-N-3, 2-amino-6-fluoro-N-(4-(4-methylpiperazin-1-yl)pyridin-3-yl)pyrazolo[1,5-a]pyrimidine-3-carboxamide] was “+++ (Compounds with a Cisplatin sensitization value of <0.02 μM are marked with “+++.”)”; that for `CC(C)N1CCN(c2ccncc2NC(=O)c2c(N)nn3cc(F)cnc23)CC1` [I-N-4, 2-amino-6-fluoro-N-(4-(4-isopropylpiperazin-1-yl)pyridin-3-yl)pyrazolo[1,5-a]pyrimidine-3-carboxamide] was “+++ (Compounds with a Cisplatin sensitization value of <0.02 μM are marked with “+++.”)”. For `CN1CCN(c2c(NC(=O)c3c(N)nn4cc(F)cnc34)cncc2C2CC2)CC1` [I-N-5, 2-amino-N-(5-cyclopropyl-4-(4-methylpiperazin-1-yl)pyridin-3-yl)-6-fluoropyrazolo[1,5-a]pyrimidine-3-carboxamide], the “Cisplatin Sensitization Assay” value is on record as “++ (Compounds with a Cisplatin sensitization value >0.02 μM but <0.2 μM are marked with “++.”)”. Take `Nc1nn2cc(F)cnc2c1C(=O)Nc1cnccc1-n1ccnc1` [I-N-7, N-(4-(1H-imidazol-1-yl)pyridin-3-yl)-2-amino-6-fluoropyrazolo[1,5-a]pyrimidine-3-carboxamide]: the “Cisplatin Sensitization Assay” value is “++ (Compounds with a Cisplatin sensitization value >0.02 μM but <0.2 μM are marked with “++.”)”. Regarding `CNCCc1cnn(-c2ccncc2NC(=O)c2c(N)nn3cc(F)cnc23)c1` [I-N-8, 2-amino-6-fluoro-N-(4-(4-(2-(methylamino)ethyl)-1H-pyrazol-1-yl)pyridin-3-yl)pyrazolo[1,5-a]pyrimidine-3-carboxamide], the “Cisplatin Sensitization Assay” value is recorded as “+ (Compounds with a Cisplatin sensitization value >0.2 μM but <5 μM are marked with “+.”)”. `CN(C)CCc1cnn(-c2ccncc2NC(=O)c2c(N)nn3cc(F)cnc23)c1` [I-N-9, 2-amino-N-(4-(4-(2-(dimethylamino)ethyl)-1H-pyrazol-1-yl)pyridin-3-yl)-6-fluoropyrazolo[1,5-a]pyrimidine-3-carboxamide]: the “Cisplatin Sensitization Assay” value is “+ (Compounds with a Cisplatin sensitization value >0.2 μM but <5 μM are marked with “+.”)”. The value for `Nc1nn2cc(F)cnc2c1C(=O)Nc1cnccc1N1CCN([C@@H]2CCOC2)CC1` [I-N-10, (R)-2-amino-6-fluoro-N-(4-(4-(tetrahydrofuran-3-yl)piperazin-1-yl)pyridin-3-yl)pyrazolo[1,5-a]pyrimidine-3-carboxamide] was “++ (Compounds with a Cisplatin sensitization value >0.02 μM but <0.2 μM are marked with “++.”)”; that for `Nc1nn2cc(F)cnc2c1C(=O)Nc1cnccc1N1CCN(C2CCOCC2)CC1` [I-N-11, 2-amino-6-fluoro-N-(4-(4-(tetrahydro-2H-pyran-4-yl)piperazin-1-yl)pyridin-3-yl)pyrazolo[1,5-a]pyrimidine-3-carboxamide] was “++ (Compounds with a Cisplatin sensitization value >0.02 μM but <0.2 μM are marked with “++.”)”; that for `Nc1nn2cc(F)cnc2c1C(=O)Nc1cncc(F)c1N1CCN(C2COC2)CC1` [I-N-13, 2-amino-6-fluoro-N-(5-fluoro-4-(4-(oxetan-3-yl)piperazin-1-yl)pyridin-3-yl)pyrazolo[1,5-a]pyrimidine-3-carboxamide] was “+++ (Compounds with a Cisplatin sensitization value of <0.02 μM are marked with “+++.”)”.

As for `CN1CCN(c2c(F)cncc2NC(=O)c2c(N)nn3cc(Cl)cnc23)CC1` [I-N-14, 2-amino-6-chloro-N-(5-fluoro-4-(4-methylpiperazin-1-yl)pyridin-3-yl)pyrazolo[1,5-a]pyrimidine-3-carboxamide], the “Cisplatin Sensitization Assay” value is “+++ (Compounds with a Cisplatin sensitization value of <0.02 μM are marked with “+++.”)”. Consider `CN1CCN(c2c(F)cncc2NC(=O)c2c(N)nn3cc(F)cnc23)CC1` [I-N-15, 2-amino-6-fluoro-N-(5-fluoro-4-(4-methylpiperazin-1-yl)pyridin-3-yl)pyrazolo[1,5-a]pyrimidine-3-carboxamide], for which the “Cisplatin Sensitization Assay” value was “+++ (Compounds with a Cisplatin sensitization value of <0.02 μM are marked with “+++.”)”.
